Consider two molecules from EP4351590B1, “A GLUCOSE-METHOTREXATE CONJUGATE FOR USE IN PREVENTING OR TREATING AUTOIMMUNE DISEASES” (Uniwersytet Medyczny Im. Piastów Slaskich We Wroclawiu, priority 2021, dated 2022).

Read-outs that look alike come from different tables or passages of the source.

For data set [1] the following is noted: cited from earlier work.
The next data set has as its system unstimulated HaCaT cells. Put plainly: MTT assay, cell viability, non-inflammatory cell model. To be noted: 10 µM, incubation 48 hours, unstimulated HaCaT (non-inflammatory human keratinocytes), mean of 3 replicates. The class given is cell-based. How it is done:
SW982 and HaCaT cells were seeded in a 96-well plate at 10 x 10^3 cells per well. The next day, cells were incubated with TNF-a at a dose of 10 ng/ml to induce inflammation. After 24h, cells were treated with MTX or Glu-MTX at 10 µM dose and incubated for 48h. After 48 hours of incubation, the medium was decanted, and 100 µl of a solution of yellow soluble 3-(4,5-dimethyl-2-thiazolyl)-2,5-diphenyl-2H-tetrazolium bromide (MTT) at a concentration of 0.5-1 mg/ml was added. After 4 hours of incubation, the MTT solution was decanted, and 50 µl/well of DMSO was added. After 3 hours, the optical density of the dissolved formazan was analyzed colorimetrically in a BioTek plate reader.
Since living cells reduce MTT to formazan, the optical density (OD) is highest in control (C) wells which accounted for 100% of cell viability. Viability in wells incubated with compound (COMP) was calculated using the formula: X = 100% x OD COMP/OD C [formula]
Figures 1 and 2 show the results of a viability assessment study (IC50) for TNF-α-stimulated SW982 and HaCaT cell lines treated with methotrexate alone or a glucose-methotrexate (Glu-MTX) derivative. […] The test was also performed on an unstimulated HaCaT cell line, which is the counterpart of non-inflammatory human keratinocytes. […] The study used: 10 µM Glu-MTX, 10 µM Methotrexate; incubation 48 hours; MTT analysis. […]
Background: Tetrazolium assays rely on reduction of a dye to a coloured formazan, in cell work by metabolically active cells.

For data set [2] the following is noted: cited from earlier work. This is another data set of the same source.

Take `CN(Cc1nc2c(N)nc(N)nc2[nH]c1=O)c1ccc(C(=O)N[C@@H](CCC(=O)O)C(=O)O)cc1` [7-OH-MTX]: the solubility in water entry in data set [1] is “sparingly soluble in water”.

`CN(Cc1cnc2nc(N)nc(N)c2n1)c1ccc(C(=O)N[C@@H](CCC(=O)O)C(=O)O)cc1` [MTX, Methotrexate]: the “cytotoxicity (cell viability)” value with unstimulated HaCaT cells is reported as “much greater cytotoxicity”. In addition, the bioavailability in data set [2] (at higher doses) is listed as 10-20%; in data set [2] (at low doses), “almost complete”. In addition, the plasma half-life in data set [2] (elimination from the circulation via the kidneys) is 5 to 8 h.
